Measured values from patent US9750757B2, “Methods of prevention or treatment for pathologic thrombosis or inflammation” (THOMAS JEFFERSON UNIVERSITY, priority 2013, dated 2017).
“Also recorded” adds a separate entry of the source.

Assays:
[1] = tested on: platelet rich plasma (PRP); assay: Light transmission aggregometry in platelet rich plasma, agonist-induced maximal aggregation (PRAX1); type: cell-based, human; details: for Mean percent maximal aggregation, Black: PRP of black subjects; for Mean percent maximal aggregation, White: PRP of white subjects
Method: (1) Houston studies. A complete blood count and mean platelet volume were obtained using an ABX Micros 60 CS (Horiba ABX, Irvine, Calif., USA). Using light transmission aggregometry, maximal percent aggregation and slope of aggregation at 10 min in platelet rich plasma (PRP) treated with: 0.5 mg/ml arachidonic acid, 4 μM ADP, 1 μM and 2 μM PAR1 activating peptide (PAR1-AP), and 50 μM and 75 μM PAR4 activating peptide (PAR4-AP) were measured. (2) Philadelphia studies. Light transmission aggregometry of washed platelets was used to assess thrombin-induced platelet aggregation without or with a 2 min pre-incubation with 20 μM BMS-200261 (BMS, PAR1-specific antagonist) (Quinton et al., J. Biol. Chem. 2004, 279, 18434-18439). A difference in the efficacy of the PAR1 inhibitor was observed between the pilot and replicate studies, but validation of inhibitor activity was confirmed for both studies (FIG. 1B inset and FIG. 7E). For assessment of calcium mobilization, platelets were re-calcified to a final concentration of 1 mM followed by pre-incubation with Fluo-4 AM for 10 min. The platelets were then stimulated with PAR4-AP and calcium mobilization was measured using the Accuri C6 flow cytometer (Yeung et al., Mol. Pharmacol. 2012, 81, 420-430). In both Houston and Philadelphia, technical variation was minimized by use of the same highly-trained technicians, same lots of reagents and same instruments throughout the duration of the study. Because multiple concentrations were used to activate PAR1 and PAR4 to induce platelet aggregation, an integrated score was developed that combined these values to determine a single index that represented each individual's agonist response. This score correlated strongly with standard assessment of maximal percent aggregation, but inclusion of slope (which was a minor contributor to the overall score, and highly related to maximal aggregation) allowed distinction among platelets with the same maximal aggregation value. This score was highly reproducible in 10 subjects studied weekly for three or four weeks.

[2] = biological target: T1, PC-TP (Homo sapiens, UniProt Q9UKL6); details: Shishova et al. 2011; cited from earlier work
T1 sequence (Q9UKL6 1-214): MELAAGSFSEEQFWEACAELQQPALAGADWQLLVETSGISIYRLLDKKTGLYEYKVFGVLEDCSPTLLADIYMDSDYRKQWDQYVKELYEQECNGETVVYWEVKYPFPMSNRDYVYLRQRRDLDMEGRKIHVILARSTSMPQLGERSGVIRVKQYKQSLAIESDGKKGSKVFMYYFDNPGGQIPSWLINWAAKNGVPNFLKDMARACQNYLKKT

[3] = biological target: T1, PC-TP; details: Wagel et al. 2008; cited from earlier work
[4] = tested on: platelets, PAR4-AP-induced aggregation; assay: PAR4-AP-induced aggregation of washed platelets (light transmission aggregometry); type: cell-based; details: washed human platelets incubated 30 min with inhibitor; sub-threshold concentrations of PAR4-AP
Method: (§1) The indicated concentrations of LDN-193,188 were incubated for 30 min with washed platelets and stimulated with sub-threshold concentrations of activating PAR peptides. […] Biol. Chem. 2004, 279, 18434-18439). […] For assessment of calcium mobilization, platelets were re-calcified to a final concentration of 1 mM followed by pre-incubation with Fluo-4 AM for 10 min. The platelets were then stimulated with PAR4-AP and calcium mobilization was measured using the Accuri C6 flow cytometer (Yeung et al., Mol. Pharmacol. 2012, 81, 420-430). In both Houston and Philadelphia, technical variation was minimized by use of the same highly-trained technicians, same lots of reagents and same instruments throughout the duration of the study. […] This score correlated strongly with standard assessment of maximal percent aggregation, but inclusion of slope (which was a minor contributor to the overall score, and highly related to maximal aggregation) allowed distinction among platelets with the same maximal aggregation value. This score was highly reproducible in 10 subjects studied weekly for three or four weeks.

[5] = tested on: platelets, PAR1-AP-induced aggregation; assay: PAR1-AP-induced aggregation of washed platelets (light transmission aggregometry); type: cell-based; details: washed human platelets incubated 30 min with inhibitor; sub-threshold concentrations of PAR1-AP
Method: as §1

CCCCC/C=C\C/C=C\C/C=C\C/C=C\CCCC(=O)O [AA, arachidonic acid]
Fold difference (Black/White) ([1]; 500 μg/ml AA): 0.99 fold
Mean percent maximal aggregation, Black ([1]; 500 μg/ml AA): 86.57%
Mean percent maximal aggregation, White ([1]; 500 μg/ml AA): 87.21%

Nc1ncnc2c1ncn2[C@@H]1O[C@H](COP(=O)(O)OP(=O)(O)O)[C@@H](O)[C@H]1O [ADP]
Fold difference (Black/White) ([1]; 4 μM ADP): 0.91 fold
Mean percent maximal aggregation, Black ([1]; 4 μM ADP): 40.89%
Mean percent maximal aggregation, White ([1]; 4 μM ADP): 45.04%

Cc1cc(C)nc(NS(=O)(=O)c2ccc(NC(=O)NC(=O)c3ccc(Cl)cc3Cl)cc2)n1 [LDN-193,188, 2,4-dichloro-N-(4-(N-(4,6-dimethylpyrimidin-2-yl)sulfamoyl)phenylcarbamoyl)-benzamide]
Displacement of phosphatidylcholine from PC-TP [2]: displaces phosphatidylcholine from the lipid binding pocket
Thermal stability of PC-TP [2]: increases the thermal stability
Phosphatidylcholine transfer activity of PC-TP [3]: inhibitor
Effect on PAR4-AP-induced platelet aggregation [4]: prevented aggregation; also recorded: blocked; also recorded: does block
Effect on PAR1-AP-induced platelet aggregation [5]: does not block
